# Target: recombinant human TYRO3 (Homo sapiens (Human), UniProt Q06418)
# Assay: TYRO3 enzymatic assay (radiometric [32P]-ATP, Poly(Glu,Tyr) substrate)
# Assay type: biochemical
# Conditions: recombinant human TYRO3, [32P]-ATP
# Procedure: Poly(Glu, Tyr) sodium salt (Glu:Tyr (4:1), quality level 200, molecular weight 5,000-20,000, obtained from Sigma Aldrich, catalogue #P7244, assay concentration 0.20 mg/mL) and recombinant human TYRO3 (obtained from ThermoFisher Scientific, catalogue #PV3828, assay concentration 2 nM) were mixed in assay buffer (20 mM Hepes pH 7.5, 10 mM MgCl2, 1 mM EGTA, 0.02% Brij35, 0.02 mg/ml BSA, 0.1 mM Na3VO4, 2 mM DTT, 1% DMSO, with added MnCl2 at a final concentration of 2 mM). Compounds of interest (in DMSO, serial 3-fold dilution from 10 μM to 0.5 nM) or control (1% DMSO) were dispensed into the kinase reaction mixture by Acoustic technology (Echo550; nanoliter range). After incubation at room temperature for 20 minutes, the kinase reaction was initiated by addition of [^32P]-ATP (Specific activity 10 μCi/μl) and the mixture was incubated at room temperature for 2 hours. The reaction was then stopped by spotting the reaction mixture on strips of phosphocellulose P81 paper. Following washing, the radioactivity of the P81 paper was measured and kinase activity data were expressed as the percent remaining kinase activity in test samples compared to vehicle (dimethyl sulfoxide) reactions. IC50 values and curve fits were obtained using Prism (GraphPad Software).
# Chain of recombinant human TYRO3 (Q06418 41-890): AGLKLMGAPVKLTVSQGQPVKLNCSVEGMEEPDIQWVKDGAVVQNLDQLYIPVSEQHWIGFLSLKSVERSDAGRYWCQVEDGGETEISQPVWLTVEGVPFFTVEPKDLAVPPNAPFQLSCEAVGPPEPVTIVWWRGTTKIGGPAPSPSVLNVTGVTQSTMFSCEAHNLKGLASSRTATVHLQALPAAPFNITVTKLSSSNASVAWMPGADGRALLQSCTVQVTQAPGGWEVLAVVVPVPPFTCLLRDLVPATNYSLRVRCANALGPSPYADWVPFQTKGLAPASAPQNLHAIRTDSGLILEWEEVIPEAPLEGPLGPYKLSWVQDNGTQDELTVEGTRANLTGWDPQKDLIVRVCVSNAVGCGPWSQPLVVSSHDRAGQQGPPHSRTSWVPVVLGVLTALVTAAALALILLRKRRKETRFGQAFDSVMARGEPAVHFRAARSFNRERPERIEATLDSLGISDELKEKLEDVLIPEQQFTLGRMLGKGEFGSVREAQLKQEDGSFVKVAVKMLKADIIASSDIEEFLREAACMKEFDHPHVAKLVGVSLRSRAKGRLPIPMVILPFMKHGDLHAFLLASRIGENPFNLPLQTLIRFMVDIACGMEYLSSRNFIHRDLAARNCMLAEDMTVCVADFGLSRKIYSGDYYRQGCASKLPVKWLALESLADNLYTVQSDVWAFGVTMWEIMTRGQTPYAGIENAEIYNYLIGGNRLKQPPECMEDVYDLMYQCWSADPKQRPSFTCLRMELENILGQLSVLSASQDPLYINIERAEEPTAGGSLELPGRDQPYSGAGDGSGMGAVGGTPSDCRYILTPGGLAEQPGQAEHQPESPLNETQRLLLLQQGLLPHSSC
row,Compound,IC50 [nM]
1,"OC1CCCN(Cc2ccc(-c3cnc4[nH]cc(-c5ccc(Cl)cc5)c4c3)cc2)C1 (stereo not shown) [compound 7, 1-(4-(3-(4-chlorophenyl)-1H-pyrrolo[2,3-b]pyridin-5-yl)benzyl)piperidin-3-ol]",51 to 150
2,"COc1ccc(-c2c[nH]c3ncc(-c4ccc(CN5CCC(N(C)C)CC5)cc4)cc23)cn1 [compound 74, 1-(4-(3-(6-methoxypyridin-3-yl)-1H-pyrrolo[2,3-b]pyridin-5-yl)benzyl)-N,N-dimethylpiperidin-4-amine]",151 to 500
3,"CC1(O)CCCN(Cc2ccc(-c3cnc4[nH]cc(-c5cccc(F)c5)c4c3)cc2)C1 (stereo not shown) [compound 5, 1-(4-(3-(3-fluorophenyl)-1H-pyrrolo[2,3-b]pyridin-5-yl)benzyl)-3-methylpiperidin-3-ol]",51 to 150
4,"COc1ccc(-c2c[nH]c3ncc(-c4ccc(CN5CCCC(OC)C5)cc4)cc23)cn1 (single isomer, unassigned; enantiomer 1) [compound 38, 5-(4-((3-methoxypiperidin-1-yl)methyl)phenyl)-3-(6-methoxypyridin-3-yl)-1H-pyrrolo[2,3-b]pyridine Enantiomer 1]",151 to 500
5,"Fc1cccc(-c2c[nH]c3ncc(-c4ccc(CN5C[C@@H]6C[C@H]5CO6)cc4)cc23)c1 [compound 6, (1S,4S)-5-(4-(3-(3-fluorophenyl)-1H-pyrrolo[2,3-b]pyridin-5-yl)benzyl)-2-oxa-5-azabicyclo[2.2.1]heptane]",51 to 150
6,CNC1CCN(Cc2ccc(-c3cnc4[nH]cc(-c5ccc(OC)nc5)c4c3)cc2)CC1 [compound 73],151 to 500
7,"COc1ccc(-c2c[nH]c3ncc(-c4ccc(CN5CCCC(F)C5)cc4)cc23)cn1 (stereo not shown) [compound 40, 5-(4-((3-fluoropiperidin-1-yl)methyl)phenyl)-3-(6-methoxypyridin-3-yl)-1H-pyrrolo[2,3-b]pyridine]",151 to 500
8,"COc1ccc(-c2c[nH]c3ncc(-c4ccc(CN5CCC(C)(O)CC5)cc4)cc23)cn1 [compound 71, 1-(4-(3-(6-methoxypyridin-3-yl)-1H-pyrrolo[2,3-b]pyridin-5-yl)benzyl)-4-methylpiperidin-4-ol]",51 to 150
9,"CCN1CCc2cc(-c3c[nH]c4ncc(-c5ccc(CN6CCCC(O)C6)cc5)cc34)ccc2C1 (stereo not shown) [compound 81, 1-(4-(3-(2-ethyl-1,2,3,4-tetrahydroisoquinolin-6-yl)-1H-pyrrolo[2,3-b]pyridin-5-yl)benzyl)piperidin-3-ol]",51 to 150
10,"Cc1ccc(-c2c[nH]c3ncc(-c4ccc(CN5CCCC(O)C5)cc4)cc23)cc1 (stereo not shown) [compound 1, 1-(4-(3-(p-tolyl)-1H-pyrrolo[2,3-b]pyridin-5-yl)benzyl)piperidin-3-ol]",51 to 150
11,"COc1ccc(-c2c[nH]c3ncc(-c4ccc(CN5CCC(O)CC5)cc4)cc23)cn1 [compound 28, 1-(4-(3-(6-methoxypyridin-3-yl)-1H-pyrrolo[2,3-b]pyridin-5-yl)benzyl)piperidin-4-ol]",151 to 500
12,"COc1ccc(-c2c[nH]c3ncc(-c4ccc(CN5CCCC(OC(C)=O)C5)cc4)cc23)cn1 (stereo not shown) [compound 69, 1-(4-(3-(6-methoxypyridin-3-yl)-1H-pyrrolo[2,3-b]pyridin-5-yl)benzyl)piperidin-3-yl acetate]",151 to 500
13,"OC1CCCN(Cc2ccc(-c3cnc4[nH]cc(-c5cccc(Cl)c5)c4c3)cc2)C1 (stereo not shown) [compound 8, 1-(4-(3-(3-chlorophenyl)-1H-pyrrolo[2,3-b]pyridin-5-yl)benzyl)piperidin-3-ol]",51 to 150
14,"CN1CCc2cc(-c3c[nH]c4ncc(-c5ccc(CN6CCCC(CO)C6)cc5)cc34)ccc2C1 (stereo not shown) [compound 82, (1-(4-(3-(2-methyl-1,2,3,4-tetrahydroisoquinolin-6-yl)-1H-pyrrolo[2,3-b]pyridin-5-yl)benzyl)piperidin-3-yl)methanol]",51 to 150
15,"COc1ccc(-c2c(C)[nH]c3ncc(-c4ccc(CN5CCCC(O)C5)cc4)cc23)cn1 (stereo not shown) [compound 62, 1-(4-(3-(6-methoxypyridin-3-yl)-2-methyl-1H-pyrrolo[2,3-b]pyridin-5-yl)benzyl)piperidin-3-ol]",51 to 150
16,"CC1(O)CCN(c2ccc(-c3cnc4[nH]cc(-c5ccc6[nH]ccc6c5)c4c3)cc2)CC1 [compound 77, 1-(4-(3-(1H-indol-5-yl)-1H-pyrrolo[2,3-b]pyridin-5-yl)phenyl)-4-methylpiperidin-4-ol]",151 to 500
17,"COc1ccc(-c2c[nH]c3ncc(-c4ccc(CN5CCC6(CC5)CN(C)C6)cc4)cc23)cn1 [compound 42, 7-(4-(3-(6-methoxypyridin-3-yl)-1H-pyrrolo[2,3-b]pyridin-5-yl)benzyl)-2-methyl-2,7-diazaspiro[3.5]nonane]",151 to 500

row,Compound,IC50 [nM]
1,"OC1CCCN(Cc2ccc(-c3cnc4[nH]cc(-c5cncc(F)c5)c4c3)cc2)C1 (stereo not shown) [compound 22, 1-(4-(3-(5-fluoropyridin-3-yl)-1H-pyrrolo[2,3-b]pyridin-5-yl)benzyl)piperidin-3-ol]",51 to 150
2,"OC1CCCN(Cc2ccc(-c3cnc4[nH]cc(-c5cccc(C(F)(F)F)c5)c4c3)cc2)C1 (stereo not shown) [compound 11, 1-(4-(3-(3-(trifluoromethyl)phenyl)-1H-pyrrolo[2,3-b]pyridin-5-yl)benzyl)piperidin-3-ol]",51 to 150
3,"OC1CCCN(Cc2ccc(-c3cnc4[nH]cc(-c5ccc(F)cc5)c4c3)cc2)C1 (stereo not shown) [compound 3, 1-(4-(3-(4-fluorophenyl)-1H-pyrrolo[2,3-b]pyridin-5-yl)benzyl)piperidin-3-ol]",51 to 150
4,"COCC1CCCN(Cc2ccc(-c3cnc4[nH]cc(-c5ccc(OC)nc5)c4c3)cc2)C1 (stereo not shown) [compound 70, 5-(4-((3-(methoxymethyl)piperidin-1-yl)methyl)phenyl)-3-(6-methoxypyridin-3-yl)-1H-pyrrolo[2,3-b]pyridine]",51 to 150
5,"OCc1[nH]c2ncc(-c3ccc(CN4CCCC(O)C4)cc3)cc2c1-c1cccc(F)c1 (single isomer, unassigned; enantiomer 2) [compound 89, 1-(4-(3-(3-fluorophenyl)-2-(hydroxymethyl)-1H-pyrrolo[2,3-b]pyridin-5-yl)benzyl)piperidin-3-ol Enantiomer 2]",51 to 150
6,"COc1ccc(-c2c[nH]c3ncc(-c4ccc(CN5CCCC(O)C5)cc4)cc23)cn1 (single isomer, unassigned; enantiomer 1) [compound 26, 1-(4-(3-(6-methoxypyridin-3-yl)-1H-pyrrolo[2,3-b]pyridin-5-yl)benzyl)piperidin-3-ol Enantiomer 1]",< 51
7,"OC1CCCN(Cc2ccc(-c3cnc4[nH]c(Cl)c(-c5cccc(F)c5)c4c3)cc2)C1 (stereo not shown) [compound 54, 1-(4-(2-chloro-3-(3-fluorophenyl)-1H-pyrrolo[2,3-b]pyridin-5-yl)benzyl)piperidin-3-ol]",51 to 150
8,"COc1ccc(-c2c[nH]c3ncc(-c4ccc(CN5CCCC(O)C5)cc4)cc23)cn1 (single isomer, unassigned; enantiomer 2) [compound 27, 1-(4-(3-(6-methoxypyridin-3-yl)-1H-pyrrolo[2,3-b]pyridin-5-yl)benzyl)piperidin-3-ol Enantiomer 2]",51 to 150
9,"COCc1[nH]c2ncc(-c3ccc(CN4CCCC(O)C4)cc3)cc2c1-c1ccc(F)nc1 (stereo not shown) [compound 64, 1-(4-(3-(6-fluoropyridin-3-yl)-2-(methoxymethyl)-1H-pyrrolo[2,3-b]pyridin-5-yl)benzyl)piperidin-3-ol]",51 to 150
10,"OC1CCCN(Cc2ccc(-c3cnc4[nH]cc(-c5ccc(C(F)(F)F)cc5)c4c3)cc2)C1 (stereo not shown) [compound 10, 1-(4-(3-(4-(trifluoromethyl)phenyl)-1H-pyrrolo[2,3-b]pyridin-5-yl)benzyl)piperidin-3-ol]",151 to 500
11,"OC1CCCN(Cc2ccc(-c3cnc4[nH]cc(-c5ccc(F)nc5)c4c3)cc2)C1 (stereo not shown) [compound 21, 1-(4-(3-(6-fluoropyridin-3-yl)-1H-pyrrolo[2,3-b]pyridin-5-yl)benzyl)piperidin-3-ol]",51 to 150
12,"OC1CCCN(Cc2ccc(-c3cnc4[nH]c(C(F)F)c(-c5cccc(F)c5)c4c3)cc2)C1 (stereo not shown) [compound 68, 1-(4-(2-(difluoromethyl)-3-(3-fluorophenyl)-1H-pyrrolo[2,3-b]pyridin-5-yl)benzyl)piperidin-3-ol]",51 to 150
13,"OC1CCCN(Cc2ccc(-c3cnc4[nH]cc(-c5ccc(C(F)(F)F)nc5)c4c3)cc2)C1 (stereo not shown) [compound 24, 1-(4-(3-(6-(trifluoromethyl)pyridin-3-yl)-1H-pyrrolo[2,3-b]pyridin-5-yl)benzyl)piperidin-3-ol]",51 to 150
14,"COc1ccc(-c2c[nH]c3ncc(-c4ccc(CN5CCC(O)C5)cc4)cc23)cn1 (stereo not shown) [compound 29, 1-(4-(3-(6-methoxypyridin-3-yl)-1H-pyrrolo[2,3-b]pyridin-5-yl)benzyl)pyrrolidin-3-ol]",51 to 150
15,"OCc1ccc(-c2c[nH]c3ncc(-c4ccc(CN5CCCC(O)C5)cc4)cc23)cn1 (stereo not shown) [compound 43, 1-(4-(3-(6-(hydroxymethyl)pyridin-3-yl)-1H-pyrrolo[2,3-b]pyridin-5-yl)benzyl)piperidin-3-ol]",51 to 150
16,"COc1ccc(-c2c[nH]c3ncc(-c4ccc(CN5CCCC(CO)C5)cc4)cc23)cn1 (stereo not shown) [compound 32, (1-(4-(3-(6-methoxypyridin-3-yl)-1H-pyrrolo[2,3-b]pyridin-5-yl)benzyl)piperidin-3-yl)methanol]",51 to 150
17,"OC1CCCN(Cc2ccc(-c3cnc4[nH]c(Cl)c(-c5cccc(C(F)F)c5)c4c3)cc2)C1 (stereo not shown) [compound 55, 1-(4-(2-chloro-3-(3-(difluoromethyl)phenyl)-1H-pyrrolo[2,3-b]pyridin-5-yl)benzyl)piperidin-3-ol]",151 to 500
